The text below walks through data of patent publication US8772323B2, “Benzoxazole- and tetrahydrobenzoxazole-substituted pyridazinones as GPR119 agonists” (Boehringer Ingelheim International GmbH, priority 2010, dated 2014).

As a reminder, the EC50 is the concentration that produces a half-maximal response. In general, melting point refers to the temperature, or range, at which the solid turns liquid.

Data set [1] addresses human GPR119 (Homo sapiens (Human), UniProt Q8TDV5). The data set can be described thus: AlphaScreen cAMP assay in Min-6/hGPR119 cells (GPR119 activation, intracellular cAMP). As to conditions: MIN6 cells stably transfected with human GPR119; 45 minutes' incubation at RT; AlphaScreen cAMP Assay Kit. The format is cell-based. In outline: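 MIN6 cells stably expressing human GPR119 plated 10000 cells/well and held 24 h at 37° C. Compounds applied in stimulating buffer, pH 7.4, with 0.5 mM IBMX, 0.1% BSA, 1% DMSO final, for 45 min at RT. Intracellular cAMP read by AlphaScreen.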
For orientation: Alpha assays give light when donor and acceptor beads are brought close together.

Sequence of human GPR119 (Q8TDV5 whole entry): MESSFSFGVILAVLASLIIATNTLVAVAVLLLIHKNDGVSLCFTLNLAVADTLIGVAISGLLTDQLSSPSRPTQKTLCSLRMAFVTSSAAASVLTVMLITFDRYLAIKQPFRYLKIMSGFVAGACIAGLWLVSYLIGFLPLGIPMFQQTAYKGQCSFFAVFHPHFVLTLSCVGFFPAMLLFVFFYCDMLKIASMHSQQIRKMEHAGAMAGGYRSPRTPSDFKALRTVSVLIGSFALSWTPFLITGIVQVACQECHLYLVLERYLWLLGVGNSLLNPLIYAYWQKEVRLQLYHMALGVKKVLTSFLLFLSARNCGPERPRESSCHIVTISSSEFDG

On to `CC1CC(=O)NN=C1c1ccc2nc(-c3cccs3)oc2c1` (stereo not shown) [Example 106, 5-methyl-6-(2-thiophen-2-yl-benzoxazol-6-yl)-4,5-dihydro-2H-pyridazin-3-one], for which the melting point amounted to 222 °C. Further, the EC50 in data set [1] came out at 0.12 µM. Taken in the same sequence, the figures for `CC1CC(=O)NN=C1c1ccc2nc(-c3ccco3)oc2c1` (stereo not shown) [Example 108, 5-methyl-6-(2-furan-2-yl-benzoxazol-6-yl)-4,5-dihydro-2H-pyridazin-3-one] were 209 °C and 0.346 µM. Taken in the same sequence, the figures for `CC1CC(=O)NN=C1c1ccc2nc(-c3ccc(N)nc3)oc2c1` (stereo not shown) [Example 109, 6-[2-(6-amino-pyridin-3-yl)-benzoxazol-6-yl]-5-methyl-4,5-dihydro-2H-pyridazin-3-one] were 293 °C and 1.41 µM.

Compound `CC1CC(=O)NN=C1c1ccc2nc(-c3cccnc3)oc2c1` (stereo not shown) [Example 110, 5-methyl-6-(2-pyridin-3-yl-benzoxazol-6-yl)-4,5-dihydro-2H-pyridazin-3-one] displayed a melting point of 218 °C. Also, a half-maximal response in data set [1] (EC50) required 4.54 µM. `CC1CC(=O)NN=C1c1ccc2nc(N3CCSCC3)oc2c1` (stereo not shown) [Example 113, 5-methyl-6-(2-thiomorpholin-4-yl-benzoxazol-6-yl)-4,5-dihydro-2H-pyridazin-3-one] yielded a melting point of 218 °C. In data set [1], this compound displayed an EC50 of 1.9 µM. The like results for `CCOC(=O)N1CCN(c2nc3ccc(C4=NNC(=O)CC4C)cc3o2)CC1` (stereo not shown) [Example 114, ethyl 4-[6-(4-methyl-6-oxo-1,4,5,6-tetrahydro-pyridazin-3-yl)-benzoxazol-2-yl]-piperazine-1-carboxylate] were, in that order, 239 °C and 2.29 µM. The like results for `CC1CC(=O)NN=C1c1ccc2nc(N3CCCCC3)oc2c1` (stereo not shown) [Example 115, 5-methyl-6-(2-piperidin-1-yl-benzoxazol-6-yl)-4,5-dihydro-2H-pyridazin-3-one] were, in that order, 235 °C and 1.13 µM. Taken in the same sequence, the figures for `CC1CC(=O)NN=C1c1ccc2nc(N3CCOCC3)oc2c1` (stereo not shown) [Example 116, 5-methyl-6-(2-morpholine-1-yl-benzoxazol-6-yl)-4,5-dihydro-2H-pyridazin-3-one] were 209 °C and 3.45 µM. Regarding `CC1CC(=O)NN=C1c1ccc2nc(N3CCNCC3)oc2c1` (stereo not shown) [Example 117, 5-methyl-6-(2-piperazin-1-yl-benzoxazol-6-yl)-4,5-dihydro-2H-pyridazin-3-one], the melting point worked out at 213 °C. For the same compound, the EC50 in data set [1] came out at 9.39 µM. Taken in the same sequence, the figures for `CC1CC(=O)NN=C1c1ccc2nc(-c3ccc(Cl)nc3Cl)oc2c1` (stereo not shown) [Example 120, 6-[2-(2,6-dichloro-pyridin-3-yl)-benzoxazol-6-yl]-5-methyl-4,5-dihydro-2H-pyridazin-3-one] were 268 °C and 1.34 µM. Regarding `CC1CC(=O)NN=C1c1ccc2nc(-c3ccc(N4CCOCC4)nc3Cl)oc2c1` (stereo not shown) [Example 121, 6-[2-(2-chloro-6-morpholin-4-yl-pyridin-3-yl)-benzoxazol-6-yl]-5-methyl-4,5-dihydro-2H-pyridazin-3-one], the melting point worked out at 236 °C. The same compound gave an EC50 in data set [1] of 0.379 µM.

In turn, `CCC1CC(=O)NN=C1c1ccc2nc(-c3ccc(OCCN4CCC(C)CC4)cc3)oc2c1` (stereo not shown) [Example 243, 5-ethyl-6-(2-{4-[2-(4-methyl-piperidin-1-yl)-ethoxy]-phenyl}-benzoxazol-6-yl)-4,5-dihydro-2H-pyridazin-3-one] registered an EC50 in data set [1] of 0.197 µM. Still for that read-out and setting: the same measure for `CCCC1CCN(CCOc2ccc(-c3nc4ccc(C5=NNC(=O)CC5CC)cc4o3)cc2)CC1` (stereo not shown) [Example 244, 5-ethyl-6-(2-{4-[2-(4-propyl-piperidin-1-yl)-ethoxy]-phenyl}-benzoxazol-6-yl)-4,5-dihydro-2H-pyridazin-3-one]: 0.181 µM; for `CCC1CC(=O)NN=C1c1ccc2nc(-c3ccc(OCCN4CCC5(CCCCC5)CC4)cc3)oc2c1` (stereo not shown) [Example 245, 6-(2-{4-[2-(3-aza-spiro[5.5]undec-3-yl)-ethoxy]-phenyl}-benzoxazol-6-yl)-5-ethyl-4,5-dihydro-2H-pyridazin-3-one]: 0.434 µM. For the compound `CCC1CC(=O)NN=C1c1ccc2nc(-c3ccc(OCCN4C[C@@H](C)O[C@@H](C)C4)cc3)oc2c1` (stereo partly drawn) [Example 246, 6-(2-{4-[2-(cis-2,6-dimethyl-morpholin-4-yl)-ethoxy]-phenyl}-benzoxazol-6-yl)-5-ethyl-4,5-dihydro-2H-pyridazin-3-one], in data set [1], a half-maximal effect (EC50) was put at 0.054 µM. Still for that read-out and setting: the same measure for `CCC1CC(=O)NN=C1c1ccc2nc(-c3ccc(OCCN4CCSCC4)cc3)oc2c1` (stereo not shown) [Example 247, 5-ethyl-6-{2-[4-(2-thiomorpholin-4-yl-ethoxy)-phenyl]-benzoxazol-6-yl}-4,5-dihydro-2H-pyridazin-3-one]: 0.062 µM; for `CCC1CC(=O)NN=C1c1ccc2nc(-c3ccc(OCCN4CCC(F)CC4)cc3)oc2c1` (stereo not shown) [Example 248, 5-ethyl-6-(2-{4-[2-(4-fluoro-piperidin-1-yl)-ethoxy]-phenyl}-benzoxazol-6-yl)-4,5-dihydro-2H-pyridazin-3-one]: 0.159 µM. As for `CCCN(CCOc1ccc(-c2nc3ccc(C4=NNC(=O)CC4CC)cc3o2)cc1)C(C)C` (stereo not shown) [Example 249, 5-ethyl-6-(2-{4-[2-(isopropyl-propyl-amino)-ethoxy]-phenyl}-benzoxazol-6-yl)-4,5-dihydro-2H-pyridazin-3-one], the EC50 in data set [1] was 0.058 µM. Compound `CCC1CC(=O)NN=C1c1ccc2nc(-c3ccc(OC(C)CO)cc3)oc2c1` (stereo not shown) [Example 251, 5-ethyl-6-{2-[4-(2-hydroxy-1-methyl-ethoxy)-phenyl]-benzoxazol-6-yl}-4,5-dihydro-2H-pyridazin-3-one] displayed an EC50 in data set [1] of 0.296 µM. On the same count and under the same terms, the same measure for `COC(=O)c1cccc(-c2nc3ccc(-c4n[nH]c(=O)cc4C)cc3o2)c1` [Example 254, methyl 3-[6-(4-methyl-6-oxo-1,6-dihydro-pyridazin-3-yl)-benzoxazol-2-yl]-benzoate]: 8.95 µM; for `Cc1cc(=O)[nH]nc1-c1ccc2nc(-c3ccc(C(=O)O)cc3)oc2c1` [Example 255, 4-[6-(4-methyl-6-oxo-1,6-dihydro-pyridazin-3-yl)-benzoxazol-2-yl]-benzoic acid]: 7.24 µM. On the same count and under the same terms, the same measure for `Cc1cc(=O)[nH]nc1-c1ccc2nc(-c3cccs3)oc2c1` [Example 256, 5-methyl-6-(2-thiophen-2-yl-benzoxazol-6-yl)-2H-pyridazin-3-one]: 9.38 µM. Still for that read-out and setting: the same measure for `O=c1ccc(-c2ccc3nc(-c4cccs4)oc3c2)n[nH]1` [Example 257, 6-(2-thiophen-2-yl-benzoxazol-6-yl)-2H-pyridazin-3-one]: 0.456 µM; for `CC[C@H]1CC(=O)NN=C1c1ccc2nc(-c3ccc(OCCN(C(C)C)C(C)C)cc3)oc2c1` [Example 258, (S)-6-{2-[4-(2-diisopropylamino-ethoxy)-phenyl]-benzoxazol-6-yl}-5-ethyl-4,5-dihydro-2H-pyridazin-3-one]: 0.605 µM; for `CC[C@@H]1CC(=O)NN=C1c1ccc2nc(-c3ccc(OCCN(C(C)C)C(C)C)cc3)oc2c1` [Example 259, (R)-6-{2-[4-(2-diisopropylamino-ethoxy)-phenyl]-benzoxazol-6-yl}-5-ethyl-4,5-dihydro-2H-pyridazin-3-one]: 0.022 µM.

`CCC[C@H]1C(=O)NN=C(c2ccc3nc(-c4ccc(OC(C)C)cc4)oc3c2)[C@@H]1C` [Example 260, (4R,5R)-5-methyl-6-{2-[4-(propan-2-yloxy)phenyl]-1,3-benzoxazol-6-yl}-4-propyl-2,3,4,5-tetrahydropyridazin-3-one] showed an EC50 in data set [1] of 0.024 µM.
